Numbered stars: 1 amine (or outer) side, 2 acyl side, 3 side chain; on linkers, the order of the positions; unused ones are H or OH. Bridge positions count the residues as written; N and C are the ends. Square brackets hold non-standard residues; d marks the D form. Ends that are not written are not given here. Peptide text beside a SMILES is read from it. DABHC = 2-azabicyclo[2,2,1]heptane-3-carboxylic acid, D-form (1R,3R,4S), O=C([C@H]1[C@H]2CC[C@H](C2)N1[*:1])[*:2]; X2 = O=C([C@@H]1[C@@H]2CC[C@@H](C2)N1[*:1])[*:2]; X1 = O=C([C@H]1[C@H]2CC[C@H](C2)N1[*:1])[*:2]; LABHC = not defined here
Tests used:
NR6/HER cells [1] = type: cell-based, mouse
Description: NR6 and NR6/HER cells (NR6 mouse fibroblasts transfected with human EGF-R expression plasmid) and HN5 squamous carcinoma cells (see Cowley, G. P. et al, Br. J. Cancer 1986, 53, 2230229) were routinely cultured in Dulbecco's Modified Eagles Medium (DMEM) containing 10% foetal bovine serum (FBS), 2 mM glutamine, non-essential amino acids, 10 U/ml penicillin and 10 μg/ml streptomycin at 37° C. in a humidified atmosphere of air containing 5% CO2. G418 (100 μg/ml) was also included in the NR6/HER growth medium as selection for EGF Receptor encoding transformants.
(§1) The ability of the Example 1 peptide to induce DNA synthesis in confluent and quiescent cells was assayed as described in Davies, D. E. et al, Br. J. Cancer 1994, 70, 263-269 but using NR6/HER or NR6 cells in place of human foreskin fibroplasts.

NR6/HER cells [2] = test: Effect of peptide on the mitogenic response induced by TGFA; type: cell-based, mouse
Description: as §1

EGF Receptor = molecular target: T1, EGF Receptor (Homo sapiens, UniProt P00533); test: EGF Receptor Tyr phosphorylation assay in HN5 cells (Western blotting); type: cell-based; settings: 10 minutes at room temperature
T1 construct: endogenous in cells; host or cells: HN5 squamous carcinoma cells
T1 sequence (P00533 25-1210): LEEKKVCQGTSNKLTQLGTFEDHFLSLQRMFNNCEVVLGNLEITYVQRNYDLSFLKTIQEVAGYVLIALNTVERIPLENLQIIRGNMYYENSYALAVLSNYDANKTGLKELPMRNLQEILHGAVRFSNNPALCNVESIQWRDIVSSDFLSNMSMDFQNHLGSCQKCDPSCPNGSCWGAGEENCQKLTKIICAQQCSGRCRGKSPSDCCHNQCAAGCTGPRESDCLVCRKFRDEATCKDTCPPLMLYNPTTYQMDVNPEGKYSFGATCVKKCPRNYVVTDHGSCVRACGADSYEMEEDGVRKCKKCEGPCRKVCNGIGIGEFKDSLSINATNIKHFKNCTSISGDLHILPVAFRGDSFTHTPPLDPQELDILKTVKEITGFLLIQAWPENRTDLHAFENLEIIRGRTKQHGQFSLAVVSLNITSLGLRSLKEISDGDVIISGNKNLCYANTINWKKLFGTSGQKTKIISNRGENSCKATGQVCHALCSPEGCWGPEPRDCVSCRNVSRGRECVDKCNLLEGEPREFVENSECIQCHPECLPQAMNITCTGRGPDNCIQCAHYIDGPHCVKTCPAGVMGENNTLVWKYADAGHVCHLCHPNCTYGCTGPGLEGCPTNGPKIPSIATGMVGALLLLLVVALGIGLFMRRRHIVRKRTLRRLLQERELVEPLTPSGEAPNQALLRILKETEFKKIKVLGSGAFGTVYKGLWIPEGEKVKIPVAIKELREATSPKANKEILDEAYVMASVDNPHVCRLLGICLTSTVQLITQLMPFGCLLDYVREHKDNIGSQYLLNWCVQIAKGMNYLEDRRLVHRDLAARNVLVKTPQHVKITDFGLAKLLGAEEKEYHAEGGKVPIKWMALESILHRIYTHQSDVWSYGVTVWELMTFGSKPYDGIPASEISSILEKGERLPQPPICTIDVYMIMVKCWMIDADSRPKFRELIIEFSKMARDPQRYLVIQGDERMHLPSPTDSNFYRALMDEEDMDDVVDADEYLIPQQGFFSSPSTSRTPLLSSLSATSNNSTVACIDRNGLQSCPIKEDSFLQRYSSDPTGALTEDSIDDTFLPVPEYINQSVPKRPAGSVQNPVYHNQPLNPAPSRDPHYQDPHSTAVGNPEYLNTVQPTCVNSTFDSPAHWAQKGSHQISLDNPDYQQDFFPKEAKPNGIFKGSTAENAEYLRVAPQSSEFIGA
Description: EGF Receptor Tyr phosphorylation assays were performed using HN5 cells at approximately 50% confluence in 96-well plates. Cells were plated in 10% FBS/DMEM and allowed to adhere overnight. Medium was removed and wells washed twice with DMEM. The peptide was diluted in DMEM and added in 50 μl volume and cells incubated for 10 minutes at room temperature. At the end of incubation, reagents were removed and the cells washed once with 50 μl/well buffered saline and then rapidly solubilised with 50 μl/well×1 sample buffer containing phosphatase and protease inhibitors (1 mM NaF, 1 mM Na3 VO4, 100 μM PMSF). Enhanced phosphorylation of the 170 kDa EGF-R was determined by Western Blotting after SDS polyacrylamide gel electrophoresis as in Holt, S. J. et al, Biochem. Pharmacol. 1994, 47, 117-126.

NR6 cells = test: Mitogenic activity on parental NR6 cell line which lacks EGF-R; type: cell-based, mouse; settings: doses maximally stimulating for NR6/HER cells; FIG. 3
[3] = molecular target: human EGF Receptor on NR6/HER cells (NR6 mouse fibroblasts transfected with human EGF-R expression plasmid) (human, UniProt P00533); test: cell-based or functional assay

Molecule	EC50 (NR6/HER cells [1]) [µM]	DNA synthesis (mitogenic activity), EC50 [3] [µM]	other results
CC(C)C[C@@H]1NC(=O)[C@H](Cc2ccccc2)NC(=O)[C@H](CCCNC(=N)N)NC(=O)[C@@H](NC(=O)[C@@H](N)Cc2ccccc2)CSSC[C@@H](C(=O)O)NC(=O)[C@H](C)NC(=O)[C@H]2[C@H]3CC[C@H](C3)N2C(=O)[C@H](CCCCN)NC(=O)[C@H](CC(=O)O)NC(=O)[C@H](CCC(=O)O)NC(=O)[C@H](CCC(N)=O)NC(=O)[C@H](C(C)C)NC1=O [Example 1 peptide] (H-FCRFLVQEDK[X1]AC-OH; disulfide 2-13)	130		
CC(C)C[C@@H]1NC(=O)[C@H](Cc2ccccc2)NC(=O)[C@H](CCCNC(=N)N)NC(=O)[C@@H](NC(=O)[C@@H](N)Cc2ccccc2)CSSC[C@@H](C(=O)O)NC(=O)[C@H](C)NC(=O)[C@@H]2[C@@H]3CC[C@@H](C3)N2C(=O)[C@H](CCCCN)NC(=O)[C@H](CC(=O)O)NC(=O)[C@H](CCC(=O)O)NC(=O)[C@H](CCC(N)=O)NC(=O)[C@H](C(C)C)NC1=O [peptide incorporating LABHC] (H-FCRFLVQEDK[X2]AC-OH; disulfide 2-13; N-terminus assumed)	330		effect on mitogenic response at maximal doses of TGFA (NR6/HER cells [2]; maximal doses of TGFA, FIG. 2(b)): Similar, but less pronounced; effect on mitogenic response at suboptimal doses of TGFA (NR6/HER cells [2]; suboptimal doses of TGFA, FIG. 2(a)): Similar, but less pronounced; EGF Receptor phosphorylation (EGF Receptor): Neither the Example 1 peptide nor the corresponding peptide incorporating LABHC appeared to lead to increased EGF Receptor phosphorylation
PDGF			mitogenic response of NR6 cells (EGF-R negative) (NR6 cells): responsiveness of the cells to a mitogenic stimulus was confirmed
FCRFLVQEDK[DABHC]AC (disulfide 2-13)		130	
FCRFLVQEDK[LABHC]AC (disulfide 2-13; reading uncertain)		330	

Reference: US5969099A, “Growth factor analogs” (The Secretary of State for Defence, priority 1995, dated 1999)
